Columns and labels:
[1] = test system: CLOCK, BMAL1 and CRY1; assay: In vivo study in mouse liver, Western blot; settings: 25 mg/kg i.p., 6 h
Method: Male C57BL/6J mice, 8 weeks of age, weighing 18-24 g were treated with two different single doses of CLK8 (25 mg/kg n=5 per each dose) intraperitoneally. Control mice (n=3) were only treated with vehicle (DMSO:Cremophor EL: 0.9% NaCl; 2.5:15:82.5, v/v, i.p.). Water and food were provided ad libitum throughout the experiments. Six hours after injection, mice were sacrificed by cervical dislocation. Liver tissues were removed, frozen in liquid nitrogen and stored at −80° C. until further processing.

[2] = target: T1, CLOCK:BMAL1 interaction (Homo sapiens, UniProt O15516); assay: Mammalian two-hybrid assay; format: cell-based; settings: HEK293T
T1 construct: expressed in transfected cells; host or cells: HEK293T
T1 sequence (O15516 1-846): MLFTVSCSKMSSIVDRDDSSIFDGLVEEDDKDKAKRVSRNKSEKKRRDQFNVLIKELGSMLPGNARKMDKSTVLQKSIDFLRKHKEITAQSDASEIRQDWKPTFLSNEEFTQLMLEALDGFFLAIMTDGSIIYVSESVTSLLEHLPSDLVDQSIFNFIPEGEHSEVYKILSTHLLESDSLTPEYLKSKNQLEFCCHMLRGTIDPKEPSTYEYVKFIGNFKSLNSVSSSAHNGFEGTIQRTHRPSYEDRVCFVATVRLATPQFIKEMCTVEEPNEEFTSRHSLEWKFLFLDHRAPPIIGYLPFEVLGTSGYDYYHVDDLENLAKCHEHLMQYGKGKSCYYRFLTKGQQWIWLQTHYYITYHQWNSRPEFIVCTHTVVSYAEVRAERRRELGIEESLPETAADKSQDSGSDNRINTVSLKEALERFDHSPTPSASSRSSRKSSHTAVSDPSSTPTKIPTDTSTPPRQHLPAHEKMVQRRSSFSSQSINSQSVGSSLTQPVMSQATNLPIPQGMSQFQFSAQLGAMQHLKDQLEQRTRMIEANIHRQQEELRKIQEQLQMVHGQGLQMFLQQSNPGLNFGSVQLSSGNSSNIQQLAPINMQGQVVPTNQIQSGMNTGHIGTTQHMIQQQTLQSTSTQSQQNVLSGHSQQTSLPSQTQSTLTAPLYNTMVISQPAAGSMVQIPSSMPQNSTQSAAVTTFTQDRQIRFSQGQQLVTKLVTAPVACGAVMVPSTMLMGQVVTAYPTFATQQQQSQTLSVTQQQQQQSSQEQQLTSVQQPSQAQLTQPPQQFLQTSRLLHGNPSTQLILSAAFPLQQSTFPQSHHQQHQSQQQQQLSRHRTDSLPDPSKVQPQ
Method: The procedure was carried out according to Checkmate-Promega's protocol. Samples were examined in triplicate sets in a 96-well plate. HEK293T cells with the density of 4×10^4 cell/well were transfected with 50 ng of pG5-luc, 50 ng of pACT-mBmal1, 50 ng of pBind-hsClock plasmids and 0.5 ng of pRL-TK for normalization. Following the transfection, the cells were treated with different concentrations of small molecules. Control cells were treated with 0.5% vehicle (DMSO).
Ultimately, luminescence was measured using Dual-Luciferase Reporter Assay System (Promega) with Fluoroskan Ascent FL plate reader.

[3] = test system: Clock-deficient MDA MB231 cells; assay: Bmal1::dluc rhythm in Clock knockout MDA MB231 cells; format: cell-based; settings: Clock knockout MDA MB231, different concentrations
Method: We used Bmal1::dluc U2-OS and Per1::dluc NIH 3T3, and continuously monitored the bioluminescence to record circadian rhythm. This experiment was performed in 96-well plates (triplicates) and 35-mm dishes (duplicates) in the secondary screen and detailed characterization steps respectively. Briefly, cells were seeded to reach confluency. A day after, the medium was replaced with DMEM containing 0.1 μM Dexamethasone to synchronize cells. […] The 96-well plates were covered and bioluminescence was monitored by Synergy H1 Hybrid Multi-Mode Reader every 32 minutes. […] Bioluminescence was recorded every 10 minutes for 4-6 days. […] The first day's data was excluded from the analysis due to transient perturbations of luminescence after the medium change.
HEK 293T cells at 75-85% confluency were transfected with […] of pLV6-Bmal-luc plasmid, 9 ng of pCMV-AR8.2dvpr packaging vector and 1 ng of pCMV-VSVG envelope vector for 16 h. […] At 72-hour post-transduction, the circadian rhythms of cells monitored using Lumicycle.
We used Bmal1::dluc U2-OS and Per1::dluc NIH 3T3, and continuously monitored the bioluminescence to record circadian rhythm. […] The 96-well plates were covered and bioluminescence was monitored by Synergy H1 Hybrid Multi-Mode Reader every 32 minutes. […] Bioluminescence was recorded every 10 minutes for 4-6 days. […]

CC1(C)CCc2c(cc(OCC(=O)Nc3ccccc3C(N)=O)c3c(-c4ccccc4)cc(=O)oc23)O1 [CLK8, 2-[2-({12,12-dimethyl-4-oxo-6-phenyl-3,11-dioxatricyclo [8.4.0.0,2,7]tetradeca-1,5,7,9-tetraen-8-yl}oxy)acetamido] benzamide]
CLOCK abundance in the nucleus (liver) [1]: significantly low | CLOCK levels in whole liver cell lysate [1]: decrease | cytosolic and nuclear BMAL1 and CRY1 (liver) [1]: unaltered | levels of BMAL1 and CRY1 in whole liver cell lysate [1]: unaltered | interaction between CLOCK and BMAL1 (two-hybrid) [2]: reduces the interaction between CLOCK and BMAL1 | CLK8-mediated increase in Bmal1-luc intensity [3]: abolished

From US12558342B2, “2-[2-({12,12-dimethyl-4-oxo-6-phenyl-3,11-dioxatricyclo[8.4.0.0,2,7]tetradeca-1,5,7,9-tetraen-8-yl}oxy)acetamido]benzamide and derivatives as inhibitor of clock:bmal1 interaction for the treatment of circadian rhythm diseases and disorders” (KOC UNIVERSITESI, priority 2019, dated 2026)
